Assays:
[1] = test system: rhIFNγ stimulated STAT-3 phosphorylation in the A549 human epithelial cell line; experiment: A549 Cell Assay: Inhibition of pSTAT3; assay type: cell-based; conditions: Homo sapiens; A549 cells
How it was run: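 Percent inhibition of STAT3 Tyr705 phosphorylation was measured by MSD immunoassay of cell lysates. A549 cells were given compound for 1 h at 37° C (final 0.3 nM to 10 μM, 0.1% DMSO, in 0.2% BSA DMEM), followed by 30 min of rhIFNγ stimulation at 20 ng/mL final. Unstimulated DMSO wells served as background.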

[2] = test system: rhIL-2 stimulated STAT5 phosphorylation in isolated human T cells; experiment: Human T Cell Assay: Inhibition of pSTAT5; assay type: cell-based
Method: Human T Cell Assay: Inhibition of pSTAT5
An assay measuring the efficacy of JAK inhibitors on the functional response of recombinant human interleukin-2 (rhIL-2) stimulated STAT5 phosphorylation in isolated human T cells.
Human whole blood from individual donors was collected from the phlebotomy unit on-site. Peripheral venous blood (30-60 mL) from healthy volunteers of either sex was used as the source of T cells. T cell isolation from venous whole blood is routinely performed in a class II microbiological safety cabinet. Each sample was collected into between 3 and 6 10 mL Sodium Heparin Vacutainer tubes (BD #367874). The blood was poured into sterile 50 mL conicals (Corning #430828) and incubated with the T cell Rosette Sep Cocktail (Stemcell Technologies #15061) at 50 μL/mL antibody/blood ratio for 20 min. with shaking at room temperature. The blood/antibody mixture was then diluted 1:2 with PBS (Pfizer media prep)/2% FBS (Sigma #F4135) and 30 mL of the mixture was layered onto 15 mL Ficoll-Hypaque (GE Healthcare #17-1440-03) in 50 mL conical tubes. The tubes were then centrifuged at 1200×g for 20 min. at room temperature with no brake. Following centrifugation the T cells formed a buffy coat between the Ficoll-Hypaque and plasma layers. The plasma above the buffy coats was removed to within 5 mm of the buffy coat using a sterile Pasteur pipette. The buffy coats were then collected into fresh sterile 50 mL conical tubes containing 25 mL PBS/2% FBS (2 buffy coats per 50 mL conical). PBS/2% FBS was added to the buffy coat cells such that the final volume in the tube was 50 mL. The tubes were then centrifuged at 200×g for 15 min. at room temperature. The supernatant was discarded and the pellet re-suspended in 10-20 mL of DMEM (Pfizer media prep) Assay media/0.2% BSA (Miltenyi #130-091-376). A differential cell count was performed using a haemacytometer and cells were diluted to 1.1×10^6 T cells/ml in DMEM/0.2% BSA media. Compounds (10 mM-0.3 μM) were diluted with Hanks Balanced Salt Solution (HBSS) (Sigma #H6648) at 1:100 dilution. Immediately following cell isolation and compound dilution, 90 μl/well of T cells (˜1×10^6/ml) in assay medium (DMEM+0.2% BSA) was added to the VWR Deep well V bottom plate (#3906-520-300). 10 μl/well of compound (final concentration range of 10 μM-0.3 nM with 0.1% DMSO) or 0.1% DMSO in HBSS as controls was added to the appropriate wells. Plates were incubated for 1 hour at 37° C., 5% CO2 incubator. 10 μl of 3.3 μg/mL rhIL-2 (R&D Systems #202-IL) was added to the cells (300 ng/ml final assay concentration). Wells containing T cells, medium with 0.1% DMSO and no rhIL-2 were used as background controls. Plates were incubated for 15 min at 37° C. After rhIL-2 stimulation, 800 μL of cold PBS/0.1% BSA was added and the plates were centrifuged at 1400 rpm for 5 min at 4° C. Supernatant was aspirated and 100 μL of ice-cold MSD lysis buffer containing protease and phosphatase inhibitors from Phospho-STAT5a/b Tyr694 assay kit (Meso-Scale Discovery #K150IGD) was added to the cell pellet. Plates were shaken for 30 min. at 4° C. and then frozen overnight. The following day, cell lysates were assayed using the MSD ELISA kit protocol for detection of pSTAT5.
Data were collected and transformed into percent inhibition and calculated using the following formula: […]

JAK2 = JAK2 (Homo sapiens (Human), UniProt O60674); experiment: JAK Caliper Enzyme Assay at 1 mM ATP (JAK2); assay type: biochemical; conditions: Caliper assay at 1 mM ATP
Chain of JAK2 (O60674 whole entry): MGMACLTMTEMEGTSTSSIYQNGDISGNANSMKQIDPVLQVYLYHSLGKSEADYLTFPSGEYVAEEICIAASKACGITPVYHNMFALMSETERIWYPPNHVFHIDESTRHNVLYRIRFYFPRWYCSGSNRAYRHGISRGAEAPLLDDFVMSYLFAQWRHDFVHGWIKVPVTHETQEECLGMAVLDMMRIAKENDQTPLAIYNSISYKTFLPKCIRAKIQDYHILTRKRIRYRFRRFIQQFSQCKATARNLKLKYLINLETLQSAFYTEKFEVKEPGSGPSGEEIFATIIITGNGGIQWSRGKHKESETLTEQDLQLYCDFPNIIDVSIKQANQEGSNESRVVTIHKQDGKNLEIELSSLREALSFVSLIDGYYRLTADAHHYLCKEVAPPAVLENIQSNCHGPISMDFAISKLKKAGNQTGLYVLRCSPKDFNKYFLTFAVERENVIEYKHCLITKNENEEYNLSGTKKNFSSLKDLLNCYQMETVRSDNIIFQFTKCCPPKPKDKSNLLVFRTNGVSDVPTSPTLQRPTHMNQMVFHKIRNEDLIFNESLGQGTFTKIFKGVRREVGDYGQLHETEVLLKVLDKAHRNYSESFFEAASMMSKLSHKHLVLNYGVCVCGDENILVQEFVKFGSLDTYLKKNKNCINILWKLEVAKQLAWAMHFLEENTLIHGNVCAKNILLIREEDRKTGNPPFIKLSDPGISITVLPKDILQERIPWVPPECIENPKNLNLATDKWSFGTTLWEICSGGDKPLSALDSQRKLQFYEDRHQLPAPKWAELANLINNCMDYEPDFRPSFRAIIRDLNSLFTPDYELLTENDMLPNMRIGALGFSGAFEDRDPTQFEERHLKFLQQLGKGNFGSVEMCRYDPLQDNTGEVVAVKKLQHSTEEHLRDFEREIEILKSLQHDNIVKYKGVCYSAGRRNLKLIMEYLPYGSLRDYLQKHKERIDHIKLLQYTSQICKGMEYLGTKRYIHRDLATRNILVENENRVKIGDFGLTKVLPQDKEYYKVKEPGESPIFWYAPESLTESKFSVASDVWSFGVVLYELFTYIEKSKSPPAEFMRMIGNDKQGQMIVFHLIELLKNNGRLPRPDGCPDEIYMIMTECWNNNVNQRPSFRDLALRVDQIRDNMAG

TYK2 = TYK2 (Homo sapiens (Human), UniProt P29597); experiment: JAK Caliper Enzyme Assay at 1 mM ATP (TYK2); assay type: biochemical; conditions: Caliper assay at 1 mM ATP
Chain of TYK2 (P29597 whole entry): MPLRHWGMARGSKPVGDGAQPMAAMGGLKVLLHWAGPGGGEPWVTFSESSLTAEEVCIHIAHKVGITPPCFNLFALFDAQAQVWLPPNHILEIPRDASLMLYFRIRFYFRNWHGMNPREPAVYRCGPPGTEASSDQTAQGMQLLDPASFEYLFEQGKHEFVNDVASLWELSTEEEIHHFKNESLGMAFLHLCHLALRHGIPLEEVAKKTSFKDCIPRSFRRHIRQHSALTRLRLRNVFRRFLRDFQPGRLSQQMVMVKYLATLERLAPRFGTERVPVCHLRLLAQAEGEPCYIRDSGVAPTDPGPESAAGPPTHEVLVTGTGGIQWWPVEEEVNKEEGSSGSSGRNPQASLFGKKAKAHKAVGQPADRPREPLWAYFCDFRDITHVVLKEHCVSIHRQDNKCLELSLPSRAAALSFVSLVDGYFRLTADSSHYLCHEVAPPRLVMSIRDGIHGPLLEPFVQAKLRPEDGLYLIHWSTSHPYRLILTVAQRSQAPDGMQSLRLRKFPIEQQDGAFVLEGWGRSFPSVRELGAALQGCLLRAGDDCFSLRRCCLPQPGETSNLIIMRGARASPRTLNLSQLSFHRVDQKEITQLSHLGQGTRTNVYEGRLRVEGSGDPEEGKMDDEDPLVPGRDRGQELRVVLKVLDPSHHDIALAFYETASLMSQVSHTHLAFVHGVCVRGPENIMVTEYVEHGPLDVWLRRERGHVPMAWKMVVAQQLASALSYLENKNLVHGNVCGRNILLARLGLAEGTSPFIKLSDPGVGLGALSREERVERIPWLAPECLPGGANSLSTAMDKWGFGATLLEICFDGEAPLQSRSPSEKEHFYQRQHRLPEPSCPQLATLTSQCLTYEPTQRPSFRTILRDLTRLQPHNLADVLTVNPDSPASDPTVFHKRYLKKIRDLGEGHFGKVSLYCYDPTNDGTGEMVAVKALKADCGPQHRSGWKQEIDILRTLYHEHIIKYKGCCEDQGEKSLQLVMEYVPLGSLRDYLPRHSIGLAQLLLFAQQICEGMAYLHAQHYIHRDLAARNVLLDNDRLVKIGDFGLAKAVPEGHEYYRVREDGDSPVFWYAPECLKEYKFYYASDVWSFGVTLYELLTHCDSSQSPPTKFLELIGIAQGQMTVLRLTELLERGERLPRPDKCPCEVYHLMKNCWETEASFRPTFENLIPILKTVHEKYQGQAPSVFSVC

JAK3 = JAK3 (Homo sapiens (Human), UniProt P52333); experiment: JAK Caliper Enzyme Assay at 1 mM ATP (JAK3); assay type: biochemical; conditions: Caliper assay at 1 mM ATP
Chain of JAK3 (P52333 whole entry): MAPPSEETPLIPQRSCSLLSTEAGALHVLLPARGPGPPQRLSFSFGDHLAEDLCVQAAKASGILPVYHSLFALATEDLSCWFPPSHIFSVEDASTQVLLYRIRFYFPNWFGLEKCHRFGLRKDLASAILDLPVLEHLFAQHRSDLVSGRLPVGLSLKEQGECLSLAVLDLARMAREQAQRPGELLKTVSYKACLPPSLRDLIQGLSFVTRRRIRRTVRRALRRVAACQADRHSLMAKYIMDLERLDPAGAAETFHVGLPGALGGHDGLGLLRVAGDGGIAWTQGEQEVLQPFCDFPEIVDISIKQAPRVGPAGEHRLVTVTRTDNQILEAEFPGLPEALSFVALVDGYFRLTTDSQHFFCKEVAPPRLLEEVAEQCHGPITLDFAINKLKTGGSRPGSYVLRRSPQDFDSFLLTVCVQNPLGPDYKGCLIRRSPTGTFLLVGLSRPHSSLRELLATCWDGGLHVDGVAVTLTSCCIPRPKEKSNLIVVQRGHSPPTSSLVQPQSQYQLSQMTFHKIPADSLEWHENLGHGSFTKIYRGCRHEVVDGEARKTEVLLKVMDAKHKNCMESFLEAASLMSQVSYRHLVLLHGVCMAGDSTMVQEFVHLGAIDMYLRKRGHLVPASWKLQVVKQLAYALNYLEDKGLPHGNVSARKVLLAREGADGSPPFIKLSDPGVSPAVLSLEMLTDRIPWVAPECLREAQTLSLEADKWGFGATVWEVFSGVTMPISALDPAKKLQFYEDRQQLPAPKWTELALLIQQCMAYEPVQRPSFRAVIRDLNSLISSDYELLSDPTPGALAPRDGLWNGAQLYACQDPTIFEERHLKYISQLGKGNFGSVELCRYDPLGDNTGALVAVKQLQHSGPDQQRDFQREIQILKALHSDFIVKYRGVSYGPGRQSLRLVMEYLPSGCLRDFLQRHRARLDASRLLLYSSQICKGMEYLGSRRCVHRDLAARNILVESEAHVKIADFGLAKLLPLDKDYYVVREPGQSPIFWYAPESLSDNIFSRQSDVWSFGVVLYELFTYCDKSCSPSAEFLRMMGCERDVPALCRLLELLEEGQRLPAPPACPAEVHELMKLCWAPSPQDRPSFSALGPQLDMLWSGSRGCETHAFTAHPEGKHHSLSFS

JAK1 = JAK1 (Homo sapiens (Human), UniProt P23458); experiment: JAK Caliper Enzyme Assay at 1 mM ATP (JAK1); assay type: biochemical; conditions: Caliper assay at 1 mM ATP
Chain of JAK1 (P23458 whole entry): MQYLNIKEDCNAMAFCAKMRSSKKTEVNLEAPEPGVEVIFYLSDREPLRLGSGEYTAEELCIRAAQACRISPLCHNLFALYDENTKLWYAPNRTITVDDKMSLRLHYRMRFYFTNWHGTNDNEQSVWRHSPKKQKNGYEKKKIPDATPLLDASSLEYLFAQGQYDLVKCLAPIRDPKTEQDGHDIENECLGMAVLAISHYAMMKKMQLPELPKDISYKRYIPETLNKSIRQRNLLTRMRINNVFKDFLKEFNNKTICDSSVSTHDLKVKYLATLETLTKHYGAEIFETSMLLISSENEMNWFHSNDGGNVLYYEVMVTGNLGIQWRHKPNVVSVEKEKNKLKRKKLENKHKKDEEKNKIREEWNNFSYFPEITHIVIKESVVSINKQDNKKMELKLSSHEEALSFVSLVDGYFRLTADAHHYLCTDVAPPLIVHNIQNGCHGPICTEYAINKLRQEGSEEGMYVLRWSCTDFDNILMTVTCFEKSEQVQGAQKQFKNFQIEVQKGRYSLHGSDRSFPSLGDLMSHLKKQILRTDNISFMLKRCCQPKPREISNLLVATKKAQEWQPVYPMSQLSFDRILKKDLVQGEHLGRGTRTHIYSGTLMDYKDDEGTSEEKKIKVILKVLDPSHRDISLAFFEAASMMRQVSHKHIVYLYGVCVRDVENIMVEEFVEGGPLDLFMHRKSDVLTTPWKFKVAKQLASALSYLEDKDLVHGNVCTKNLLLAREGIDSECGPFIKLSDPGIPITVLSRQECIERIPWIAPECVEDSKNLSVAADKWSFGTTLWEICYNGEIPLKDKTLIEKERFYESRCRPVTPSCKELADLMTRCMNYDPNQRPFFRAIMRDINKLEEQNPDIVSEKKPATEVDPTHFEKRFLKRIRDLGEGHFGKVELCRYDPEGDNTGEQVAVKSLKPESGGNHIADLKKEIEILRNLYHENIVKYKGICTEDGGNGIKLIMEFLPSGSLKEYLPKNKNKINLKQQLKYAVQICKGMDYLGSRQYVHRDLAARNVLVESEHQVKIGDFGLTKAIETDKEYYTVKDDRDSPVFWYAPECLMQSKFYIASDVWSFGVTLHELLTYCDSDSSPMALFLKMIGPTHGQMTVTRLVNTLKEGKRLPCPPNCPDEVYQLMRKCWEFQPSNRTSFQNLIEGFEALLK

SMILES: CNC(=O)c1n[nH]c2cc(-c3cc(F)c(O)cc3CC(F)(F)F)nc(NCc3ccccc3N(C)S(C)(=O)=O)c12 [Example 20, 6-[5-fluoro-4-hydroxy-2-(2,2,2-trifluoroethyl)phenyl]-N-methyl-4-({2-[methyl(methylsulfonyl)amino]benzyl}amino)-1H-pyrazolo[4,3-c]pyridine-3-carboxamide]
- IC50 [1]: 18.8 nM
- IC50 [2]: 31.9 nM
- IC50 (JAK2): 16.6 nM
- IC50 (TYK2): 20.9 nM
- IC50 (JAK3): 95.3 nM
- IC50 (JAK1): 3.6 nM
